“And” between values parts separate entries of the source, which are not always exact repeats. Identical values can stand only once. ± gives the expanded uncertainty stated by the source.
Key:
[1] = Crystal; for vapor or sublimation pressure: Transpiration method; for Normal melting temperature: DTA
[2] = Molar enthalpy of transition or fusion; conditions: Crystal; DSC

O=C(O)c1ccccc1F [2-fluorobenzoic acid]
[1]
Conditions | vapor or sublimation pressure [kPa]
333.9 K | 0.00321 ± 0.00023
334.6 K | 0.0035 ± 0.00023
335.9 K | 0.00389 ± 0.00026
337 K | 0.00451 ± 0.0003
338.9 K | 0.00528 ± 0.00035
340.2 K | 0.00614 ± 0.00044
342 K | 0.00738 ± 0.00051
342.2 K | 0.00734 ± 0.00051
345 K | 0.0094 ± 0.00064
346.6 K | 0.01115 ± 0.00075
348.3 K | 0.0132 ± 0.00088
351.2 K | 0.01709 ± 0.0011
352.4 K | 0.01997 ± 0.0013
353.2 K | 0.02087 ± 0.0014
354.2 K | 0.02242 ± 0.0015
356.5 K | 0.02903 ± 0.0019
358.2 K | 0.03398 ± 0.0022
358.3 K | 0.0322 ± 0.0021
360.5 K | 0.03997 ± 0.0026
361.3 K | 0.04428 ± 0.0028
363.4 K | 0.05001 ± 0.0032
364.5 K | 0.05529 ± 0.0036
367.2 K | 0.07204 ± 0.0046

Conditions | Molar enthalpy of transition or fusion [kcal/mol] | Normal melting temperature [°C]
[1] | – | 123.6 ± 0.4
[2] | 4.85 ± 0.143 | –

O=C(O)c1ccccc1I [2-iodobenzoic acid]
[1]
Conditions | vapor or sublimation pressure
362.4 K | 0.00113 ± 8e-05 kPa
367.6 K | 0.00188 ± 0.00013 kPa
376.2 K | 0.00432 ± 0.00028 kPa
381.9 K | 0.00744 ± 0.00051 kPa
386.9 K | 0.01099 ± 0.00075 kPa
393.2 K | 0.02004 ± 0.0013 kPa and 0.01875 ± 0.0012 kPa
397.2 K | 0.02759 ± 0.0018 kPa
399.2 K | 0.03193 ± 0.0021 kPa
403.2 K | 0.0431 ± 0.0028 kPa and 0.04492 ± 0.0029 kPa
407.3 K | 0.06078 ± 0.0039 kPa
411.5 K | 0.08737 ± 0.0055 kPa

Conditions | Molar enthalpy of transition or fusion [kcal/mol] | Normal melting temperature [°C]
[1] | – | 161.4 ± 0.4
[2] | 6.6 ± 0.143 | –

O=C(O)c1cccc(F)c1 [3-fluorobenzoic acid]
[1]
Conditions | vapor or sublimation pressure [kPa]
331.9 K | 0.00407 ± 0.00028
334.9 K | 0.00564 ± 0.00038
338 K | 0.00734 ± 0.00052
342.1 K | 0.01139 ± 0.00077
345 K | 0.01472 ± 0.00097
347.1 K | 0.01783 ± 0.0012
350.4 K | 0.02353 ± 0.0015
353.3 K | 0.03091 ± 0.002
356.5 K | 0.04119 ± 0.0027
359.5 K | 0.0543 ± 0.0035
362.6 K | 0.06845 ± 0.0043

Conditions | Molar enthalpy of transition or fusion [kcal/mol] | Normal melting temperature [°C]
[1] | – | 122.8 ± 0.4
[2] | 4.42 ± 0.0956 | –

O=C(O)c1cccc(I)c1 [3-iodobenzoic acid]
[1]
Conditions | vapor or sublimation pressure [kPa]
366.6 K | 0.00121 ± 9e-05
370.4 K | 0.00171 ± 0.00012
375.8 K | 0.00281 ± 0.0002
380.8 K | 0.00438 ± 0.00028
386 K | 0.00688 ± 0.00048
389.1 K | 0.00894 ± 0.00061
391.9 K | 0.01174 ± 0.00079
395.1 K | 0.01521 ± 0.001
399.2 K | 0.02068 ± 0.0014
404.1 K | 0.03146 ± 0.002
404.2 K | 0.03145 ± 0.002
409 K | 0.04684 ± 0.003
411.4 K | 0.05339 ± 0.0034
414.2 K | 0.06461 ± 0.0041
417.5 K | 0.08451 ± 0.0054
422 K | 0.1194 ± 0.0075

Conditions | Molar enthalpy of transition or fusion [kcal/mol] | Normal melting temperature [°C]
[1] | – | 185.8 ± 0.4
[2] | 6.62 ± 0.143 | –

O=C(O)c1ccc(F)cc1 [4-fluorobenzoic acid]
[1]
Conditions | vapor or sublimation pressure [kPa]
343 K | 0.00456 ± 0.00031
346.2 K | 0.00612 ± 0.00044
349.3 K | 0.00844 ± 0.00059
355.1 K | 0.01384 ± 0.00091
356.5 K | 0.01539 ± 0.001
359.5 K | 0.02097 ± 0.0014
363.7 K | 0.02861 ± 0.0018
365.6 K | 0.03441 ± 0.0022
366.9 K | 0.03729 ± 0.0024
371.8 K | 0.05523 ± 0.0035
375.8 K | 0.07688 ± 0.0049
380.9 K | 0.1162 ± 0.0074
385.2 K | 0.1594 ± 0.01
386.2 K | 0.1701 ± 0.011

Conditions | Molar enthalpy of transition or fusion [kcal/mol] | Normal melting temperature [°C]
[1] | – | 183.0 ± 0.4
[2] | 5.16 ± 0.12 | –

O=C(O)c1ccc(I)cc1 [4-iodobenzoic acid]
[1]
Conditions | vapor or sublimation pressure [kPa]
388.9 K | 0.00205 ± 0.00014
391.1 K | 0.00244 ± 0.00017
403.3 K | 0.00654 ± 0.00045
409.4 K | 0.01081 ± 0.00073
415.3 K | 0.01743 ± 0.0011
421.5 K | 0.02673 ± 0.0017
424.5 K | 0.03413 ± 0.0022
427.4 K | 0.04118 ± 0.0026
433.5 K | 0.06312 ± 0.004

Conditions | Molar enthalpy of transition or fusion [kcal/mol] | Normal melting temperature [°C]
[1] | – | 270.8 ± 0.4
[2] | 8.05 ± 0.215 | –

Reference: the NIST ThermoML archive (doi:10.1016/j.fluid.2015.10.001)
